Experimental data from patent US11976083B2, “Inhibitors of peptidylarginine deiminases” (Gilead Sciences, Inc., priority 2020, dated 2024).

Target: T1, human PAD4 (Homo sapiens, UniProt Q9UM07)
T1 construct: human PAD4 (NM_012387), A2-P663, was PCR amplified; His-SUMO (N, cleaved yes); made in house; host or cells: E. coli BL21(DE3)
Test: In vitro PAD4 BAEE biochemical assay
Conditions: BAEE substrate 3 mM, 5 nM PAD4, 2 mM calcium chloride; geometric mean of multiple experiments
Procedure, shortened: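 Recombinant human PAD4 (5 nM final) with 2 mM CaCl2 was preincubated with compound 30 min at 25 °C in MOPS buffer pH 7.6, then reacted with 3 mM BAEE for 2 h at 25 °C. After EDTA stop, released ammonia was detected by o-phthalaldehyde/DTT fluorescence (ex 405/em 535 nm); IC50 from four-parameter fit, geometric mean.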

T1 sequence (Q9UM07 2-663): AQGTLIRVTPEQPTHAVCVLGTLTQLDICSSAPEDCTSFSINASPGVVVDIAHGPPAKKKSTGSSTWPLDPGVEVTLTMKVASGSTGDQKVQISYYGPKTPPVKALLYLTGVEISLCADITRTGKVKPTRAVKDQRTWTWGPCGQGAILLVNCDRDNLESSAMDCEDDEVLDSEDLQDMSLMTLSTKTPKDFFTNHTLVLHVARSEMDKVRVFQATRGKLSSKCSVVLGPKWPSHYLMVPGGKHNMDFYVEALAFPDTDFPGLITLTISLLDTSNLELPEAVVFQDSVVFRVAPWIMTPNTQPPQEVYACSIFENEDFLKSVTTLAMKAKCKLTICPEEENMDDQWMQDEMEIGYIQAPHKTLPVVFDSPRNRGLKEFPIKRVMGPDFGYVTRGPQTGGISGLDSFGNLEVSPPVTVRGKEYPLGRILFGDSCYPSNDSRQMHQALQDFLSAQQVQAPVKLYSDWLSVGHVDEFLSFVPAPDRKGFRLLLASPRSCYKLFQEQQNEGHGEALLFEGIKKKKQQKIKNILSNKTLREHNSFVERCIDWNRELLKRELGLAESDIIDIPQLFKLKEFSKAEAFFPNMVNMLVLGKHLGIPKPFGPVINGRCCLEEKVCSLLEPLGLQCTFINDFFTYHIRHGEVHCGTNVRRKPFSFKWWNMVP

| Structure (SMILES) | IC50 [nM] |
| --- | --- |
| COc1cc(C(=O)N2CC[C@@H](OC)[C@@H](N)C2)cc2nc(-c3cc4ccc5nc4n3CC(F)(F)CCC[C@@H]3C[C@H]3C(=O)N(C)[C@@H]5C)n(C)c12 [Example 692, (2~{R},5~{R},7~{R})-14-[5-[(3~{S},4~{R})-3-amino-4-methoxy-piperidine-1-carbonyl]-7-methoxy-1-methyl-benzimidazol-2-yl]-11,11-difluoro-2,3-dimethyl-3,13,19-triazatetracyclo[11.5.2.0^ {5,7}.0^{16,20}]icosa-1(19),14,16(20),17-tetraen-4-one] | 27 |
| CO[C@@H]1CCN(C(=O)c2ccc3c(c2)nc(-c2cc4ccc5nc4n2CCCCCc2nc(Cl)ccc2C(=O)N[C@@H]5C)n3C2CC2)C[C@@H]1N [Example 693, (2~{R})-17-[5-[(3~{S},4~ {R})-3-amino-4-methoxy-piperidine-1-carbonyl]-1-cyclopropyl-benzimidazol-2-yl]-8-chloro-2-methyl-3,9,16,22-tetrazatetracyclo [14.5.2.0^{5,10}.0^ {19,23}]tricosa-1(22), 5(10),6,8,17,19(23), 20-heptaen-4-one] | 18 |
| COc1cc(C(=O)N2CC[C@@H](OC)[C@@H](N)C2)cc2nc(-c3cc4ccc5nc4n3CCCCC[C@H]3C(F)(F)[C@]3(C)C(=O)N[C@@H]5C)n(C)c12 [Example 694, (2~{R},5~{S},7~{R})-14-[5-[(3~{S},4~{R})-3-amino-4-methoxy-piperidine-1-carbonyl]-7-methoxy-1-methyl-benzimidazol-2-yl]-6,6-difluoro-2,5-dimethyl-3,13,19-triazatetracyclo[11.5.2.0^ {5,7}.0^{16,20}]icosa-1(19), 14,16(20),17-tetraen-4-one] | 268 |
| COc1cc(C(=O)N2CC[C@@H](OC)[C@@H](N)C2)cc2nc(-c3cc4ccc5nc4n3CCCCC[C@@H]3C[C@@]3(F)C(=O)N[C@@H]5C)n(C)c12 [Example 695, (2~{R},5~{S},7~{R})-14-[5-[(3~{S},4~{R})-3-amino-4-methoxy-piperidine-1-carbonyl]-7-methoxy-1-methyl-benzimidazol-2-yl]-5-fluoro-2-methyl-3,13,19-triazatetracyclo[11.5.2.0^ {5,7}.0^{16,20}]icosa-1(19), 14,16(20),17-tetraen-4-one] | 57 |
| CO[C@@H]1CCN(C(=O)c2ccc3c(c2)nc(-c2cc4ccc5nc4n2CCCCCc2ccnc(C)c2C(=O)N[C@@H]5C)n3C2CC2)C[C@@H]1N [Example 696, (2~{R})-17-[5-[(3~{S}, 4~{R})-3-amino-4-methoxy-piperidine-1-carbonyl]-1-cyclopropyl-benzimidazol-2-yl]-2,6-dimethyl-3,7,16,22-tetrazatetracyclo [14.5.2.0^{5,10}.0^{19,23}] tricosa-1(22),5(10), 6,8,17,19(23),20-heptaen-4-one] | 48 |
| COc1cc(C(=O)N2CC[C@@H](OC)[C@@H](N)C2)cc2nc(-c3cc4ccc5nc4n3CCCCCc3ccnc(C)c3C(=O)N[C@@H]5C)n(C)c12 [Example 697, (2~{R})-17-[5-[(3~{S}, 4~{R})-3-amino-4-methoxy-piperidine-1-carbonyl]-7-methoxy-1-methyl-benzimidazol-2-yl]-2,6-dimethyl-3,7,16,22-tetrazatetracyclo[14.5.2.0^ {5,10}.0^{19,23}] tricosa-1(22),5(10),6,8,17, 19(23),20-heptaen-4-one] | 74 |
| CO[C@@H]1CCN(C(=O)c2cc(F)c3c(c2)nc(-c2cc4ccc5nc4n2CCCCCc2ccnc(C)c2C(=O)N[C@@H]5C)n3C2CC2)C[C@@H]1N [Example 698, (2~{R})-17-[5-[(3~{S),4~ {R})-3-amino-4-methoxy-piperidine-1-carbonyl]-1-cyclopropyl-7-fluoro-benzimidazol-2-yl]-2,6-dimethyl-3,7,16,22-tetrazatetracyclo[14.5.2.0^ {5,10).0^{19,23}]tricosa-1(22),5(10),6,8,17,19(23),20-heptaen-4-one] | 68 |
| COc1cc(C(=O)N2CC[C@@H](OC)[C@@H](N)C2)cc2nc(-c3cc4ccc5nc4n3CCCCCCC[C@@H](C(F)(F)F)N[C@@H]5C)n(C)c12 [Example 699, [(3~{S},4~{R})-3-amino-4-methoxy-1-piperidyl]-[7-methoxy-1-methyl-2-[(9~{S},11~ {R})-11-methyl-9-(trifluoromethyl)-1,10,19-triazatricyclo[10.5.2.0^ {15,18}]nonadeca-12(19),13,15(18),16-tetraen-17-yl]benzimidazol-5-yl] methanone] | 640 |
| CO[C@@H]1CCN(C(=O)c2cc(F)c3c(c2)nc(-c2cc4ccc5nc4n2CC(F)(F)CCC[C@]2(F)C[C@H]2C(=O)N[C@@H]5C)n3C2CC2)C[C@@H]1N [Example 700, (2~{R},5~{S},7~{S})-14-[5-[(3~{S},4~{R})-3-amino-4-methoxy-piperidine-1-carbonyl]-1-cyclopropyl-7-fluoro-benzimidazol-2-yl]-7,11,11-trifluoro-2-methyl-3,13,19-triazatetracyclo[11.5.2.0^ {5,7}.0^{16,20}]icosa-1(19),14,16(20),17-tetraen-4-one] | 22 |
| C[C@@H]1[C@H](N)CCCN1C(=O)c1cc(F)c2c(c1)nc(-c1cc3ccc4nc3n1CC(F)(F)CCC[C@]1(F)C[C@H]1C(=O)N[C@@H]4C)n2C1CC1 [Example 701, (2~{R},5~{S},7~{S})-14-[5-[(2~{R},3~{R})-3-amino-2-methyl-piperidine-1-carbonyl]-1-cyclopropyl-7-fluoro-benzimidazol-2-yl]-7,11,11-trifluoro-2-methyl-3,13,19-triazatetracyclo[11.5.2.0^ {5,7}.0^{16,20}]icosa-1(19),14,16(20),17-tetraen-4-one] | 5 |
| COc1cc(C(=O)N2CC[C@@H](OC)[C@@H](N)C2)cc2nc(-c3cc4ccc5nc4n3CC(F)(F)CCC[C@]3(F)C[C@H]3C(=O)N[C@@H]5C)n(C)c12 [Example 702, (2~{R},5~{S},7~{S})-14-[5-[(3~{S},4~{R})-3-amino-4-methoxy-piperidine-1-carbonyl]-7-methoxy-1-methyl-benzimidazol-2-yl]-7,11,11-trifluoro-2-methyl-3,13,19-triazatetracyclo[11.5.2.0^ {5,7}.0^{16,20}]icosa-1(19),14,16(20),17-tetraen-4-one] | 21 |
| COc1cc(C(=O)N2CCC[C@@H](N)[C@H]2C)cc2nc(-c3cc4ccc5nc4n3CC(F)(F)CCC[C@]3(F)C[C@H]3C(=O)N[C@@H]5C)n(C)c12 [Example 703, (2~{R},5~{S},7~{S})-14-[5-[(2~{R},3~{R})-3-amino-2-methyl-piperidine-1-carbonyl]-7-methoxy-1-methyl-benzimidazol-2-yl]-7,11,11-trifluoro-2-methyl-3,13,19-triazatetracyclo[11.5.2.0^ {5,7}.0^{16,20}]icosa-1(19), 14,16(20),17-tetraen-4-one] | 11 |
| CO[C@@H]1CCN(C(=O)c2cc(F)c3c(c2)nc(-c2cc4ccc5nc4n2CCCCC[C@]2(F)C[C@H]2C(=O)N[C@@H]5C)n3C2CC2)C[C@@H]1N [Example 704, (2~{R},5~{S},7~{S})-14-[5-[(3~{S},4~{R})-3-amino-4-methoxy-piperidine-1-carbonyl]-1-cyclopropyl-7-fluoro-benzimidazol-2-yl]-7-fluoro-2-methyl-3,13,19-triazatetracyclo[11.5.2.0^ {5,7}.0^{16,20}]icosa-1(19), 14,16(20),17-tetraen-4-one] | 31 |
| C[C@@H]1[C@H](N)CCCN1C(=O)c1cc(F)c2c(c1)nc(-c1cc3ccc4nc3n1CCCCC[C@]1(F)C[C@H]1C(=O)N[C@@H]4C)n2C1CC1 [Example 705, (2~{R},5~{S},7~{S})-14-[5-[(2~{R},3~{R})-3-amino-2-methyl-piperidine-1-carbonyl]-1-cyclopropyl-7-fluoro-benzimidazol-2-yl]-7-fluoro-2-methyl-3,13,19-triazatetracyclo[11.5.2.0^ {5,7}.0^{16,20}]icosa-1(19),14,16(20),17-tetraen-4-one] | 20 |
| COc1cc(C(=O)N2CCC[C@@H](N)[C@H]2C)cc2nc(-c3cc4ccc5nc4n3CCCCC[C@]3(F)C[C@H]3C(=O)N[C@@H]5C)n(C)c12 [Example 706, (2~{R},5~{S},7~{S})-14-[5-[(2~{R},3~{R})-3-amino-2-methyl-piperidine-1-carbonyl]-7-methoxy-1-methyl-benzimidazol-2-yl]-7-fluoro-2-methyl-3,13,19-triazatetracyclo[11.5.2.0^ {5,7}.0^{16,20}]icosa-1(19),14,16(20),17-tetraen-4-one] | 19 |
| COc1cc(C(=O)N2C[C@H]3OC[C@@H]2[C@@H]3N)cc2nc(-c3cc4ccc5nc4n3CC(F)(F)CCC[C@@H]3C[C@H]3C(=O)N[C@@H]5C)n(C)c12 [Example 707, (2~{R},5~{R},7~{R})-14-[5-[(1~{R},4~{S},7~ {S})-7-amino-2-oxa-5-azabicyclo[2.2.1]heptane-5-carbonyl]-7-methoxy-1-methyl-benzimidazol-2-yl]-11,11-difluoro-2-methyl-3,13,19-triazatetracyclo[11.5.2.0^ {5,7}.0^{16,20}]icosa-1(19),14,16(20),17-tetraen-4-one] | 21 |
| COc1cc(C(=O)N2C[C@H]3OC[C@@H]2[C@@H]3N)cc2nc(-c3cc4ccc5nc4n3CCCCCCC(C)(C)C(=O)N[C@@H]5C)n(C)c12 [Example 708, (11~{R})-17-[5-[(1~{R},4~{S), 7~{S})-7-amino-2-oxa-5-azabicyclo[2.2.1]heptane-5-carbonyl]-7-methoxy-1-methyl-benzimidazol-2-yl]-8,8,11-trimethyl-1,10,19-triazatricyclo[10.5.2.0^ {15,18}]nonadeca-12(19),13,15(18),16-tetraen-9-one] | 91 |
